Laboratory results: paper PMC9525908, “α-Crystallin chaperone mimetic drugs inhibit lens γ-crystallin aggregation: Potential role for cataract prevention” (The Journal of Biological Chemistry, 2022)
Residue numbers refer to the chain shown, from its start. Like-named read-outs stand apart in the source and are kept apart here.

How the values were obtained:
Format in all cases: biochemical
WT-MγS = target: T1, WT-MγS (Mus musculus, UniProt O35486); experiment: Dynamic light scattering, WT-MγS; settings: 400 μM drug; for Suppression of aggregate formation, DLS temperature scan: WT-MγS, 30–90 °C
T1 construct: made in house; host or cells: E. coli BL21(DE3) pLysS, pET17b vector
T1 sequence (O35486 1-178): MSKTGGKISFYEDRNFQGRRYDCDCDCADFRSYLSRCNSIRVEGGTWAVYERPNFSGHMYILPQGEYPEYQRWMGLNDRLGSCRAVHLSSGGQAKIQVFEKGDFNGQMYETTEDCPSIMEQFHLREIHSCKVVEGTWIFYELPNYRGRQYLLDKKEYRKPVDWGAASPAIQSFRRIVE
Description: (§1) Efficacy of our selected drugs in preventing the formation of protein aggregates was measured by DLS. Measurements were performed on a Wyatt DynaPro Nanostar. For DLS temperature scan experiment, pure and filtered protein samples (1 mg/ml in 10 mM sodium phosphate buffer, pH 7.2) with and without drugs (400 μM) were analyzed by DLS over a temperature range of 30 to 90 °C. Multiple scans were run for every data point, and the results represent average of individual scans. DLS spectra were also recorded for the samples at the end point of turbidity assay.

HγD = target: T2, HγD (Homo sapiens, UniProt P07320); experiment: Thermal aggregation (72 °C) turbidity assay, recombinant HγD; settings: for inhibition at 125 µM / Effect on HγD at 2.0 mg/ml and 20 min: 20 min; for inhibition at 125 µM: 75 μM protein, 125 μM or less inhibitor (1.7:1); for Effect on HγD aggregation at low protein / Effect on HγD at 2.0 mg/ml and 20 min: 72 °C
T2 construct: made in house; host or cells: E. coli BL21(DE3) pLysS, pET3d vector
T2 sequence (P07320 1-174): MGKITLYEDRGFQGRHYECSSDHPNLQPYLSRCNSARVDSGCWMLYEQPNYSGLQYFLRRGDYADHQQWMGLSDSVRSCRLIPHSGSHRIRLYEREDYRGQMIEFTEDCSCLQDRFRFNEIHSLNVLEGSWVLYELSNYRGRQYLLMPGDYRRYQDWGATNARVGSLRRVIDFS
Description: For refinement of the aforementioned screen, these compounds were tested at concentrations varying from 50 to 500 μM and 1.5 mg/ml concentration of recombinant HγD, human gamma S (HγS), its deamidation mutants γS_N14, γS_N76, γS_N143 and its triple mutant γSTM (Fig. 1F). In addition, other drugs and compounds that tested positive in the initial screen were also included, such as escin (E), hematein (I), citric acid (CA), docusate sodium (DS), and sennoside A (S) (Fig. S1B). […] For a review, see the study by Roskamp et al. ([38]). […] Thus, drug C and drug G emerged as the strongest antidenaturation/aggregation and potential anticataract drugs. For the mechanistic studies below these two compounds together with either drug M, chosen mostly as negative control, or the entire set of six compounds were used for comparison purpose, whereby the words “drug” or “compound” are used interchangeably in the studies later.
For end-point assays, HγD and MγS (1 mg/ml, 100 μl) in 50 mM K3PO4 buffer (pH 7.2) in set of triplicates in transparent flat bottom 96-well plates were heated at 72 °C for 20 min in the presence and absence of selected drugs at varying concentrations. Absorbance was measured at 600 nm with a SpectraMax iD5 (Molecular Devices).
HγD protein (2.5 mg/ml buffer A) was incubated at 72 °C for 20 min without or with 100 or 400 μM drug G or C in buffer A. Final DMSO concentration was 5% in all samples. […] Therefore, samples with and without 400 μM drug G were chosen for identification of drug G-induced miscleavage sites upon digestion with 25:1 protein:trypsin ratio (sequencing grade modified trypsin; Promega) in buffer A. After 4 h, samples were frozen at −80 °C until processed for determination of miscleavage sites using proteomics analysis. LC–MS/MS analysis was performed on an Orbitrap Eclipse mass spectrometer (Thermo Fisher Scientific) coupled with a Waters nanoAcquity UPLC system (Waters) in total 90 min run using a linear gradient range from 0 to 42% solvent B (0.1% formic acid in acetonitrile) versus solvent A (0.1% formic acid in water) at a flow rate of 300 nl/min. MS1 full mass spectra were acquired in the Orbitrap mass analyzer at the resolution of 120 K. MS/MS tandem mass spectra were generated in the ion trap mass analyzer by collision-induced dissociation of peptide ions at a normalized collision energy of 35%. The resulting MS/MS spectra were searched against human gamma D protein database using Mass Matrix software (MassMatrix, Inc) with the mass errors of 10 ppm and 0.8 Da for MS1 and MS/MS scans, respectively. The oxidation of methionine was set for variable modifications, and three miscleavages were allowed for the search.
Final DMSO concentration was 5% including in control samples. Microtiter plates were first incubated for 10 min at 72 °C and reincubated for 10 more min. Absorbance was measured at both 10 and 20 min total incubation time.

HγS = target: T3, HγS (Homo sapiens, UniProt P22914); experiment: Thermal aggregation (72 °C, 20 min) turbidity assay, HγS; settings: 20 min, read-out: % Suppression; for inhibition: HγS, 75 μM protein, 72 °C 20 min
T3 sequence (P22914 1-178): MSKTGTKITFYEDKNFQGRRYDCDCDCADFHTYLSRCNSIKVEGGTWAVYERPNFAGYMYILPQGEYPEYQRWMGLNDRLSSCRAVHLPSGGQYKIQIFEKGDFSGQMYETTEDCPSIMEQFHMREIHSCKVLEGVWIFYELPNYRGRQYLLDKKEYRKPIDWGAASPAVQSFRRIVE
Description: For a review, see the study by Roskamp et al. ([38]). […] For the mechanistic studies below these two compounds together with either drug M, chosen mostly as negative control, or the entire set of six compounds were used for comparison purpose, whereby the words “drug” or “compound” are used interchangeably in the studies later.

OPJ-MγS = target: T4, OPJ-MγS (Mus musculus, UniProt O35486, F10S); experiment: Dynamic light scattering, OPJ-MγS; settings: 400 μM drug; for Suppression of aggregate formation, DLS temperature scan: OPJ-MγS, 30–90 °C; for Percent Mass Peak 1 / Percent Mass Peak 2 / Radius (nm) Peak 1 / Radius (nm) Peak 2: OPJ-MγS 45 μM, 72 °C 20 min
T4 construct: made in house; host or cells: E. coli BL21(DE3) pLysS, pET17b vector
T4 sequence (O35486 1-178 F10S): T1 sequence (O35486 1-178) with F10S
Description: as §1

[1] = HγD experiment 1, 72 °C 20 min, read-out: % Suppression
[2] = HγD experiment 2, 72 °C 20 min, read-out: % Suppression
[3] = read-out: % Suppression, HγD experiment 1, 72 °C 20 min
[4] = read-out: % Suppression, HγD experiment 2, 72 °C 20 min

| inhibition at 125 µM (HγD; [1]) [%] | inhibition at 125 µM (HγD; [2]) [%] | inhibition (HγS) [%] | Percent Mass Peak 2 (WT-MγS; WT-MγS 45 μM, 72 °C 20 min) [%] | Radius (nm) Peak 2 (WT-MγS; WT-MγS 45 μM, 72 °C 20 min) [nm] | SMILES | Suppression of aggregate formation, DLS temperature scan (WT-MγS) | Suppression of aggregate formation, DLS temperature scan (OPJ-MγS) | Percent Mass Peak 1 (WT-MγS; WT-MγS 45 μM, 72 °C 20 min) [%] | Radius (nm) Peak 1 (WT-MγS; WT-MγS 45 μM, 72 °C 20 min) [nm] | Effect on HγD aggregation at low protein (HγD; 400 μM drug) | Effect on HγD at 2.0 mg/ml and 20 min (HγD; 400 μM drug) | inhibition at 125 µM (HγD; [3]) [%] | inhibition at 125 µM (HγD; [4]) [%] | inhibition at 125 µM (HγS) [%] | Percent Mass Peak 1 (OPJ-MγS) [%] | Percent Mass Peak 2 (OPJ-MγS) [%] | Radius (nm) Peak 1 (OPJ-MγS) [nm] | Radius (nm) Peak 2 (OPJ-MγS) [nm] | Turbidity suppression (HγD; HγD 2.5 mg/ml, 400 μM drug, 72 °C 20 min, 5% DMSO) |
| --- | --- | --- | --- | --- | --- | --- | --- | --- | --- | --- | --- | --- | --- | --- | --- | --- | --- | --- | --- |
| 63 | 60 | 60 |  |  | COC(=O)/C=C/C(C)=C\C=C\C(C)=C\C=C\C=C(C)\C=C\C=C(C)\C=C\C(=O)O [drug B, Bixin] | mild suppressive effects | mild suppressive effects |  |  |  |  |  |  |  |  |  |  |  |  |
|  |  |  |  |  | Cc1cc(C(C#N)c2ccc(Cl)cc2)c(Cl)cc1NC(=O)c1cc(I)cc(I)c1O (centres unmarked) [drug C, Closantel] | strong suppressive effects | strong suppressive effects | 100 | 86.6 | worsened HγD aggregation | no baseline change | 65 | 73 | 71 | 32 | 68 | 21.9 | 358.7 |  |
|  |  |  |  |  | CC(C)=CCCC1(C)C=Cc2c(O)c3c(c(CC=C(C)C)c2O1)OC12C(=CC4CC1C(C)(C)OC2(C/C=C(/C)C(=O)O)C4O)C3=O (centres unmarked) [drug D, dihydrogambogic acid] | mild suppressive effects | mild suppressive effects |  |  |  |  | 66 | 78 | 61 |  |  |  |  |  |
|  |  |  |  |  | CC(C)=CCC[C@]1(C)C=Cc2c(O)c3c(c(CC=C(C)C)c2O1)O[C@]12C(=C[C@@H]4C[C@H]1C(C)(C)O[C@@]2(C/C=C(/C)C(=O)O)C4=O)C3=O [drug G, Gambogic acid] | strong suppressive effects | strong suppressive effects | 100 | 77.9 | worsened HγD aggregation | no baseline change | 69 | 75 | 46 | 100 |  | 79.3 |  | markedly suppressed turbidity |
| 38 | 73 | 39 | 98.6 | 6200.7 | O=C(O)CCCCCCCCCCCC[C@@H]1C=CCC1 [drug M, Chaulmoogric acid] | no suppression | no suppression | 1.4 | 622.0 |  |  |  |  |  | 0 | 100 | 53.1 | 5594.1 |  |

| SMILES | inhibition at 125 µM (HγD; [1]) [%] | inhibition at 125 µM (HγD; [2]) [%] | inhibition (HγS) [%] | Percent Mass Peak 2 (WT-MγS; WT-MγS 45 μM, 72 °C 20 min) [%] | Radius (nm) Peak 2 (WT-MγS; WT-MγS 45 μM, 72 °C 20 min) [nm] | Suppression of aggregate formation, DLS temperature scan (WT-MγS) | Suppression of aggregate formation, DLS temperature scan (OPJ-MγS) | Percent Mass Peak 1 (WT-MγS; WT-MγS 45 μM, 72 °C 20 min) [%] | Radius (nm) Peak 1 (WT-MγS; WT-MγS 45 μM, 72 °C 20 min) [nm] | Effect on HγD aggregation at low protein (HγD; 400 μM drug) | Effect on HγD at 2.0 mg/ml and 20 min (HγD; 400 μM drug) | inhibition at 125 µM (HγD; [3]) [%] | inhibition at 125 µM (HγD; [4]) [%] | inhibition at 125 µM (HγS) [%] | Percent Mass Peak 1 (OPJ-MγS) [%] | Percent Mass Peak 2 (OPJ-MγS) [%] | Radius (nm) Peak 1 (OPJ-MγS) [nm] | Radius (nm) Peak 2 (OPJ-MγS) [nm] | Turbidity suppression (HγD; HγD 2.5 mg/ml, 400 μM drug, 72 °C 20 min, 5% DMSO) |
| --- | --- | --- | --- | --- | --- | --- | --- | --- | --- | --- | --- | --- | --- | --- | --- | --- | --- | --- | --- |
| Oc1c(Cl)cc(Cl)c(Cl)c1Cc1c(O)c(Cl)cc(Cl)c1Cl [drug X, Hexachlorophene] | 61 | 47 |  |  |  | mild suppressive effects | mild suppressive effects |  |  |  |  |  |  | 68 |  |  |  |  |  |
